# Test results: patent publication US10154994B2, “Ophthalmic formulations of tyrosine kinase inhibitors, methods of use thereof, and preparation methods thereof” (Allgenesis Biotherapeutics Inc., priority 2015, dated 2018)
# Structures can show the parent of a compound that is named as a salt. Where two headings read alike, the source gives them in different places.
# Test system: cornea suture-induced neovascularization
# Details: for CNV Branching / CNV Length / CNV Area (~%): 6 eyes; for CNV Area (~%): percentage estimate of involved corneal circumference
# Method: For this study, New Zealand white rabbits at approximately 5 months old with no visible signs of ocular defects were selected. Suture placement was performed on Day 1. Prior to surgery, the right eye of each animal was dilated using a mydriatic agent (1% tropicamide), and the conjunctiva was flushed with approximately 10 mL benzalkonium chloride (Zephiran™) diluted in sterile water, U.S.P. to 1:10,000 (v/v). Saline (0.9%) was also used to flush the eye along with benzalkonium chloride. Animals were anesthetized with isoflurane/oxygen during the procedure. Hydration of the eyes was maintained by irrigation with saline solution, as needed. The procedure was conducted under a dissecting or surgical microscope. The cornea of the right eye was exposed using an eyelid speculum. The central corneal area was appropriately marked as considered necessary by the surgeon. […] The outer point of suture placement was chosen near the limbus (1-2 mm), and the inner suture point was chosen near the corneal center, equidistant from the limbus, to obtain standardized angiogenic responses. The left eye remained untreated.
# The study design is shown below in Table 7:
# Dose formulations were administered by subconjunctival injection to the sutured right eye of each animal of the Avastin control group (5 mg) on Days 1 and 7, at a dose volume of 200 μL/dose immediately post suture placement. Dose formulations were given three times daily (TID) for the group administered with suspension vehicle, 0.3% Axitinib, 0.3% Nintedanib Ethanesulfonate, or 0.3% Sorafenib Tosylate for a duration of 14 days. […] The dosing volume was one 35 μL drop per dose. After the dose was administered, the upper and lower eyelids were gently held together to prevent the loss of material and to distribute the dose across the eye.
# Ocular imaging and neovascularization assessments were performed once pre-treatment, and also once on Days 7 and 14. A pre-anesthetic cocktail of Ketamine (15 mg/kg) and Dexmedetomidine (0.25 mg/kg) was administered subcutaneously, and the animals were maintained with isoflurane/oxygen mix prior to and during the procedure. Still images of the cornea were taken from both eyes (from the center of each eye, nasally and temporally). Images were evaluated qualitatively and quantitatively to assess the degree of corneal neovascularization (CNV), and to determine the area affected by CNV. The length of the vessel incursion was measured from the limbus to the distal end of the encroaching CNV using a digital micrometer (in millimeters) for each selected image. Qualitative assessments included the percentage estimate of involved corneal circumference (using multiple images as necessary), and vessel branching.
# [1] = topical TID for 14 days, study conclusion
Molecule,corneal neovascularization observed (Day 7),CNV Branching (Day 7),CNV Length (Day 7),CNV Area (~%) (Day 7) [%],tolerability in the CNV study (topical TID for 14 days),efficacy in preventing or slowing CNV progression [1],efficacy compared with Avastin (Day 7),corneal neovascularization observed (Day 14),CNV Branching (Day 14),"efficacy compared with Avastin (vessel length, surface area and vessel branching; words) (Day 15)","tolerability in the CNV study (rabbit, in vivo)",efficacy versus Avastin in preventing or slowing CNV progression (study conclusion),corneal neovascularization observed (Day 7 and Day 14),CNV Length (Day 14) [mm],CNV Area (~%) (Day 14) [%],CNV Branching (Pre),CNV Length (Pre) [mm],CNV Area (~%) (Pre) [%]
CNC(=O)c1ccccc1Sc1ccc2c(/C=C/c3ccccn3)n[nH]c2c1 [Axitinib],not observed,very slight to moderate,approximately 0.5 mm,~20,well-tolerated,efficacious in preventing or slowing CNV progression,–,–,–,–,–,–,–,–,–,–,–,–
COC(=O)c1ccc2c(c1)NC(=O)/C2=C(\Nc1ccc(N(C)C(=O)CN2CCN(C)CC2)cc1)c1ccccc1 [Nintedanib Ethanesulfonate],not observed,very slight to moderate,approximately 0.5 mm,~20,–,efficacious in preventing or slowing CNV progression,comparable to one given Avastin,sparse,no branching,slightly more efficacious,well-tolerated,"more efficacious, or at least comparable to Avastin",–,–,–,–,–,–
CNC(=O)c1cc(Oc2ccc(NC(=O)Nc3ccc(Cl)c(C(F)(F)F)c3)cc2)ccn1 [Sorafenib Tosylate],–,–,–,–,–,–,–,–,–,–,–,–,Slight corneal neovascularization,–,–,–,–,–
"Avastin: active control, 5 mg/eye by subconjunctival injection",–,0,0 mm,0,–,–,–,minimal CNV,1,–,–,–,–,0.45,13,0,0,0
